Columns and labels:
[1] = system: JFH-1 virus infected Huh 7.5.1 cell; experiment: MTT assay, cytotoxicity of ginsenosides on liver cancer cell line; type: cell-based; details: 10, 25, 50 and 100 μL concentration (so in the source), 72 hours
Procedure: MTT assay was conducted to identify cytotoxicity of ginsenosides.
Specifically, the cells (Huh7.5.1) were seeded at the rate of 1×10^4 cells (in 100 μL)/well in 96 well plates, and incubated in 5% CO2 incubator for less than 24 hours. And after the samples were washed with 1×PBS once and treated with the rate of 50 ul JFH-1 virus/well, and replaced in the 5%, CO2 incubator for six hours. After taking out the cell samples from the incubator, the samples were washed with 1×PBS once and replaced in the culturing media comprising 10, 25, 50 and 100 μL concentration of the above stated seven (7) ginsenosides in Example 3, respectively. After the cells were incubated in 5% CO2 incubator for 72 hours, 20 μl of assay reagent, EZ Cytox, was seeded into each well with the care of no bubble producing. And then, the treated cells were incubated in 5% CO2 incubator for 2.5 hours, followed by examining absorbance at 420 nm with Microplate Reader (Molecular Devices, Minn.). DMSO was the solvent used when treating with ginsenoside, and both the control group and the cells infected with JFH-1 group were also treated with the solvent DMSO.

TNF-α = experiment: Real-time PCR for TNF-α level in virus-infected Huh 7.5.1 cells; type: cell-based
Procedure: To identify a mechanism of apoptosis action, virus-infected Huh 7.5.1 cells were treated with ginsenoside Rg3 and conducted real-time PCR (Taqman Real-time Quantitative RT-PCR Assay for HCV RNA Detection) to estimate TNF-α level.
First, a total number of 50,000 Huh 7.5.1 cells were incubated in 24 well and a total RNA was extracted from the above stated treated cells using Rneasy mini kit (QIAGEN Corp.). And then, the total RNA was quantified by Nanodrop 1000 (Thermo Scientific Corp.), and manufactured cDNA by conducting RT PCR (Reverse Transcription-PCR) using i cycler, (BIO-RAD Co.). After the synthesized cDNAs were reacted with TaqMan GX Master Mix (Applied Biosystems, Branchburg, N.J.), TNF-α, B-actin mRNAs were quantified by 96 well real-time PCR (StepOne Plus Sequence detector system, Applied Biosystems). Verified primer/probe set was purchased to conduct the TaqMan Gene Expression assay in this experiment (Gene: TNF-α (TNF-alpha) # Hs01113624_g1, Gene Symbol: ACTB # Hs99999903_m1).

thioredoxin = experiment: Western blotting against thioredoxin in JFH-1 infected Huh 7.5.1 cells; type: cell-based; details: 100 μM, 72 hours
Procedure: To examine the ginsenoside Rg3 effect onto anti-oxidant enzymes, western blotting analysis against thioredoxin, an anti-oxidant enzyme induced by Hepatitis C, was carried out. the analysis was conducted 72 hours after the samples of Huh 7.5.1 cells treated with each 100 μM of seven ginsenosides (Ro, Re, Rg1, Rg2, Rg3, Rh1, Rh2) as described above in the Example 3.
Specifically, western blotting analysis was carried out as follow. First, the above described samples were prepared, mixed with a sample buffer in tubes, and heated at 100° C. for 10 minutes. The tubes were cooled on ice and centrifuged. The electrophoresis was carried out with the prepared samples and molecular weight markers were put in. And then, they were transferred to a PVDF membrane (hydrophobic). After blocking with 5% skin milk for an hour, primary antibodies of thioredoxin was added. After staying overnight at 4° C., washing three times for every 10 minutes, blocking with 5% skin milk for an hour at the room temperature was carried out. After that, each secondary antibody was added and waited one hour for its reaction and washing three times for every 10 minutes were carried out. Then, the membrane was stained by 1:1 mixture of detection reagents A (Luminol Enhancer solution) and B (Peroxide solution) and developed with X ray film.

HCV NS3/4A protease = molecular target: T1, HCV NS3/4A protease (Hepatitis C virus genotype 2a, UniProt Q99IB8); experiment: HCV NS3/4A protease activity (HCV Protease Assay kit, ANASPEC); type: biochemical
T1 construct: Diluted HCV NS3 protease to an appropriate concentration in assay buffer; expressed in transfected cells; host or cells: HCV replicon-containing Huh7 cells (membrane fractions)
Procedure: HCV Protease Assay kit (ANASPEC) was used to the following experiments. The components, description and quantity were as follows:
Diluted HCV protease substrate (Component A) 1:50 in assay buffer.
Diluted HCV NS3 protease to an appropriate concentration in assay buffer.
b) Mixed an equal volume of the HCV NS3 protease diluent and Pep4AK diluent. Incubated the mixture at 23-25° C. for 15 min.
The HCV replicon-containing cells (e.g. 1×10^7-10^8 Huh7 cells) grew to 90% confluence. The cells were washed with 1× phosphate-buffered saline once, and then the cells were detached by scraping. The cell pellets were harvested by centrifuging at 900×g for 10 min at 4° C. The cell pellets were resuspended with 1 mL of hypotonic buffer (10 mM Tris-HCl, pH 7.8, 10 mM NaCl), and then the cell pellets were incubated on ice for 15-20 min. The cell pellets were disrupted with 50 strokes of a tight fitting pestle in a Dounce homogenizer. The homogenate was centrifuged at 900×g for 5 min at 4° C. to remove the nuclei, which was in the pellet. […]
For kinetics reading: Immediately started measuring fluorescence intensity at Ex/Em=490 nm/520 nm continuously and recorded data every 5 min for 30 to 60 min.
For end-point reading: Incubated the reaction at room temperature for 30 to 60 minutes. […] Then measured fluorescence intensity at Ex/Em=490 nm/520 nm.

T1 sequence (Q99IB8 1031-1661): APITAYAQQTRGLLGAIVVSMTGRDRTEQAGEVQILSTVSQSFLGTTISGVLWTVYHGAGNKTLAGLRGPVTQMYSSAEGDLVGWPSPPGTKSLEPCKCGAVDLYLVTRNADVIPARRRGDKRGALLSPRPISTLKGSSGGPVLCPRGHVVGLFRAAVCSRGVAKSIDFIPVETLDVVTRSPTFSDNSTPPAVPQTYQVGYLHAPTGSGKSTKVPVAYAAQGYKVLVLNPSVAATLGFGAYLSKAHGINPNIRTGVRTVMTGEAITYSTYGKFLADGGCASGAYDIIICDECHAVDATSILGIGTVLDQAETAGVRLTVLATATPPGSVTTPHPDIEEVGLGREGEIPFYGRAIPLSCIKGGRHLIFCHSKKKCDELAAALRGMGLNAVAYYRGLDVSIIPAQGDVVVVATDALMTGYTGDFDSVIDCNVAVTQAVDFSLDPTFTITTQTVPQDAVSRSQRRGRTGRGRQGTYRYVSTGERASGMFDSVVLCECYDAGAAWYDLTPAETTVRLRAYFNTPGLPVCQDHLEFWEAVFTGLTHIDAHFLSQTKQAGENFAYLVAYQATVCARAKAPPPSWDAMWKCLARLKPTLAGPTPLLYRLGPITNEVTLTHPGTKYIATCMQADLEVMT
T1 sequence (Q99IB8 1662-1715): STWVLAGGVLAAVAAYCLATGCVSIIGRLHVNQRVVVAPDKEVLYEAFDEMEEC

With `CC(C)=CCC[C@](C)(O)[C@H]1CC[C@]2(C)[C@@H]1[C@H](O)C[C@@H]1[C@@]3(C)CC[C@H](O[C@@H]4O[C@H](CO)[C@@H](O)[C@H](O)[C@H]4O[C@@H]4O[C@H](CO)[C@@H](O)[C@H](O)[C@H]4O)C(C)(C)[C@@H]3CC[C@]12C` [ginsenoside Rg3] the “cytotoxicity (MTT assay)” value [1] was “no cytotoxicity”, the “level of TNF-α” value (TNF-α) was “remarkably decreased” and the thioredoxin (thioredoxin) was “decreased”. For the same compound, the NS3/4 protease activity (HCV NS3/4A protease) was “inhibited” and the “NS3/4 protease activity, dose dependence” value (HCV NS3/4A protease) was “dose-dependent manner”.
